US9752175B2, “Systems and methods to detect biofilm streamer growth and their uses” (The Trustees of Princeton University, priority 2014, dated 2017)

System: Pseudomonas aeruginosa PA14
Assay: Microfluidic pressure-driven flow assay (biofilm streamer clogging)
Format: cell-based
Conditions: low concentration of tetracycline; microfluidic channel
Protocol: Overnight P. aeruginosa cultures were backdiluted 1:100 in tryptone broth and grown to midlogarithmic phase (OD600=0.5). This culture (100 mL) was used to fill a reservoir connected via Tygon tubing (inner diameter 2.4 mm) to a microfluidic channel made from polydimethylsiloxane (PDMS) (Sylgard 184, Dow Corning). The channels (FIG. 1A) are 90 μm high, 200 μm wide, and constitute the narrowest part of the experimental flow system. Analogous to the inlet, the outlet of the microfluidic channel is also connected to Tygon tubing, and the effluent culture is collected in a dish on an analytical balance. By changing the elevation of the culture reservoir above the effluent collection dish, the applied pressure difference Δp is altered, which alters the flow rate through the channel. Operating this system for 24 h with H2O at a flow rate of 15.7±0.05 μL/min reduced the liquid level in the reservoir to decrease the pressure drop across the channel by 2.1%. […]
The weight of the effluent culture was measured every 4 s on an analytical balance (GD503, Sartorius), controlled with LabVIEW. […]
where the density was assumed to be the density of water, 1 kg/L. T and τ were calculated by fitting the function
[formula] to the measured flow rate Q(t), where Q0 is the flow rate before the clogging transition. […]

`CN(C)[C@@H]1C(O)=C(C(N)=O)C(=O)[C@@]2(O)C(O)=C3C(=O)c4c(O)cccc4[C@@](C)(O)[C@H]3C[C@@H]12` [tetracycline] was tested, and the “duration of the clogging transition (τ)” value was “no effect”.
